Each structure is given as a SMILES string.

Common to all, as to type: in vivo
The subject of data set [1] is DS male mice. In words: Anti-pentylenetetrazol activity. Conditions: for Anti-pentylenetetrazol activity, ED50: oral, 60 minutes prior to 125 mg/kg s.c. pentylenetetrazol, complete protection against mortality, observed two hours; for times more potent than diazepam, anti-pentylenetetrazol activity: versus diazepam (Compound No. 5). The source says:
1. Anti-pentylenetetrazol activity
The convulsions were disregarded.

Data set [2] concerns DS male mice. In words: Taming activity. Particulars: for Taming activity ED50: given 60 minutes prior, inhibition of fighting responses to 5 Hz square wave pulse, 5 pairs; for times more potent than diazepam, taming activity: versus diazepam (Compound No. 5). The protocol: This test was measured on DS male mice. […] These pairs of mice were selected in the morning and used for drug test in the afternoon. The test compound was administered to both mice of the pairs 60 minutes prior to the experiment. Results were obtained as the mean percentage of inhibition of fighting responses in a group of 5 pairs and shown by ED50 [Tedeschi, et al.: J. Pharmacol Exp. Thev., 125, 28-34 (1959) ].

Data set [3] deals with DS male mice. Nature of the data set: Rotarod performance activity. Particulars: fall from rod (five rotations per minute) within less than 2 minutes. The procedure:
3. Rotarod performance activity
This test was measured on DS male mice. The mouse was put on a scraped rod of wood, 3 cm in diameter, turning at the rate of five rotations per minute. The mice that could remain on the rod for three or more minutes in successive trials were selected and placed in a group of 10 mice for each dose. If the mouse fell down from the rod within less than 2 minutes, the test compound was considered to be effective. Results were shown by ED50 [Dunham, et al.: J. Am. Pharm. Assoc., 46, 208 (1959)].
(In the rotarod test animals must keep their balance on a rotating rod.)

[4] abbreviates: versus chlordiazepoxide (Compound No. 4).

Turning to `CN(C(=O)CNC(=O)CN)c1ccc(Cl)cc1C(=O)c1ccccc1F.Cl` [Compound No. 3, 2-o-fluorobenzoyl-4-chloro-N-methyl-N^α -glycyl-glycinanilide hydrochloride], in the data set with DS male mice [1], the “Anti-pentylenetetrazol activity, ED50” value is 0.33 mg/kg and the “times more potent than diazepam, anti-pentylenetetrazol activity” value is recorded as 2 to 4 times. Further, in the data set on DS male mice [2], the “Taming activity ED50” value is 1.6 mg/kg and the “times more potent than diazepam, taming activity” value was 2 to 4 times. The “Rotarod performance ED50” value with DS male mice [3] is 17.0 mg/kg.
`CN(C(=O)CNC(=O)CN)c1ccc(Cl)cc1C(=O)c1ccccc1` [Compound No. 1, 2-benzoyl-4-chloro-N-methyl-N^α -glycyl-glycinanilide]: the “Anti-pentylenetetrazol activity, ED50” value in the data set with DS male mice [1] came out at 1.0 mg/kg. Further, in the data set with DS male mice [1] (setting [4]), the “times more potent than chlordiazepoxide, anti-pentylenetetrazol activity” value is 2 to 3 times. The “times more potent than chlordiazepoxide, taming activity” value in the data set on DS male mice [2] (setting [4]) is on record as 2 to 3 times.
Consider `CNC1=Nc2ccc(Cl)cc2C(c2ccccc2)=[N+]([O-])C1` [Compound No. 4, Chlordiazepoxide, reference compound], for which, in the data set on DS male mice [3], the “Rotarod performance ED50” value was determined as 50.0 mg/kg.
Regarding `CN(C(=O)CNC(=O)CN)c1ccc(Cl)cc1C(=O)c1ccccc1Cl.O` [Compound No. 2, 2-o-chlorobenzoyl-4-chloro-N-methyl-N^α -glycyl-glycinanilide hydrate], in the data set with DS male mice [1], the “Anti-pentylenetetrazol activity, ED50” value is recorded as 0.58 mg/kg and the “times more potent than diazepam, anti-pentylenetetrazol activity” value is listed as 2 to 4 times. Moreover, in the data set with DS male mice [2], the “Taming activity ED50” value came to 3.0 mg/kg and the “times more potent than diazepam, taming activity” value was 2 to 4 times.

The values above are taken from patent US4076705A, “Dipeptide derivatives and their production” (Shionogi & Co., Ltd., priority 1974, dated 1978).
